Test results from PMC9170154, “Identification of an arthropod molecular target for plant-derived natural repellents” (Proceedings of the National Academy of Sciences of the …, 2022).
Where a chain is given by its changes, count along the chain named.

Columns and labels:
Experiment in all cases: whole-cell patch clamp, HEK […]
[1] = tested on: T1, sTRP1 (scorpion TRP1); type: cell-based, Olivierus martensii; settings: current evoked by 2 mM citronellal after sensitization
T1 construct: full-length cDNA (791 residues) cloned by RACE PCR, in pIRES2-EGFP vector, transiently expressed in HEK 293T cells

[2] = target: T2, dTRPγ (Drosophila melanogaster, UniProt Q9VJJ7); type: cell-based; settings: agonist
T2 construct: gene Trpgamma
T2 sequence (Q9VJJ7 1-1128): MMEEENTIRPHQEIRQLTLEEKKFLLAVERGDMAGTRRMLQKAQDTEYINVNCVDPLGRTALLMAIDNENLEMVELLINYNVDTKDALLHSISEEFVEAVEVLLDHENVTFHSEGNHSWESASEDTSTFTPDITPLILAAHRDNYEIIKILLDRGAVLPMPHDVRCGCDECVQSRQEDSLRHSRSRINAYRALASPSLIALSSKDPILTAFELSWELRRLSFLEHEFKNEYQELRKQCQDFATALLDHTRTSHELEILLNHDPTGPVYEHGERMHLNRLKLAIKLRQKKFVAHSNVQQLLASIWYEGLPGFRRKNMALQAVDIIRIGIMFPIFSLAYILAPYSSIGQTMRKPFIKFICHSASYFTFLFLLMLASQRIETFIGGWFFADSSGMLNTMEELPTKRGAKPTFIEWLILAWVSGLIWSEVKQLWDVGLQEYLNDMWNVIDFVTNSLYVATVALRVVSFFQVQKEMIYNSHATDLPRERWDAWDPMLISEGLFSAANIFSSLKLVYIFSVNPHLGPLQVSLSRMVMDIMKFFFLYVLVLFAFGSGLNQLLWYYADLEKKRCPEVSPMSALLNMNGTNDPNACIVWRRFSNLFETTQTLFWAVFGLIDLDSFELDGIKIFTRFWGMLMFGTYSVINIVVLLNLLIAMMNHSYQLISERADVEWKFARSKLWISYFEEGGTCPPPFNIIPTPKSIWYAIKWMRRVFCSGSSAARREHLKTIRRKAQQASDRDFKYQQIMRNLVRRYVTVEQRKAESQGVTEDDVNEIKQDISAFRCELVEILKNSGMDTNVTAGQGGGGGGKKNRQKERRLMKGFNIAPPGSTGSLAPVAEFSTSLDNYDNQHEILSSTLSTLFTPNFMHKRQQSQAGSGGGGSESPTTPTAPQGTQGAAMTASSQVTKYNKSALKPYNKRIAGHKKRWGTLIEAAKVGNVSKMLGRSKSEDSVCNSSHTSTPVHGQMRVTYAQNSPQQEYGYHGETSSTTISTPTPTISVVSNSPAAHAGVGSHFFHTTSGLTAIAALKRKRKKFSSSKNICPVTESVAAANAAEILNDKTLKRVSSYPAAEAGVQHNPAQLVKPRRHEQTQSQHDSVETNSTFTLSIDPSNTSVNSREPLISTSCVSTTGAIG

[3] = tested on: T1, sTRP1 (scorpion TRP1); type: cell-based, Olivierus martensii; settings: agonist, after full sensitization
[4] = target: T2, dTRPγ; type: cell-based; settings: dTRPγ mutant
[5] = target: T2, dTRPγ; type: cell-based
[6] = target: T3, dTRPγ (Drosophila melanogaster, UniProt Q9VJJ7, V515A); type: cell-based; settings: dTRPγ mutant
T3 construct: gene Trpgamma
T3 sequence (Q9VJJ7 1-1128 V515A): T2 sequence (Q9VJJ7 1-1128) with V515A

Q: With `NCCOB(c1ccccc1)c1ccccc1` [2-aminoethoxydiphenyl borate] as the compound, how does the IC50 ([1]; inhibitor, nH 1.3) read?
A: 48.3 ± 5.58 µM

Q: For `CC12CCC(CC1=O)C2(C)C` (centres unmarked) [camphor], which “whole-cell patch clamp, HEK 293T” value [2] is on record?
A: We here show that camphor activates both sTRP1 and dTRPγ (SI Appendix, Fig. S11)

Q: And the EC50 ([3]; nH 2.4)?
A: 3300 ± 200 µM

Q: Which results are given for `CC(C)=CCCC(C)CC=O` (centres unmarked) [citronellal]?
A: EC50 ([3]; nH 3.3): 560 ± 10 µM; whole-cell patch clamp, HEK 293T [4]: mutant V513L reduced the response to citronellal and citronellol; EC50 [5]: 870 ± 50 µM

Q: With `CC(C)=CCCC(C)CCO` (centres unmarked) [citronellol] as the compound, how does the “whole-cell patch clamp, HEK 293T” value [6] read?
A: the V515A substitution selectively impaired the sensitivity to citronellol and camphor

Q: What about the EC50 ([3]; nH 3.6) of the same compound?
A: 300 ± 10 µM

Q: What about the “whole-cell patch clamp, HEK 293T” value [4] of the same compound?
A: mutant V513L reduced the response to citronellal and citronellol

Q: And the EC50 [5]?
A: 490 ± 20 µM

Q: With `Cl.Cl.Cl.Cl.Cl.Cl.N.N.N.N.N.N.N.N.N.N.N.N.N.N.[O-2].[O-2].[Ru+3].[Ru+3].[Ru+4]` [ruthenium red] as the compound, how does the IC50 ([1]; channel blocker, nH 1.6) read?
A: 3.12 ± 0.29 µM
